This note sets out measurements from paper PMC5031999, “Structure and catalytic mechanism of monodehydroascorbate reductase, MDHAR, from Oryza sativa L. japonica” (Scientific Reports, 2016).

The structures appear in SMILES notation.

Holding throughout (assay type): binding
Assay [1] has as its target T1, OsMDHAR (Oryza sativa, UniProt Q652L6, E196A).
T1 construct: gene MDAR3; amplified from rice cDNA; monomer by size exclusion
Briefly: X-ray crystal structure, […] Å. As to conditions: crystal soaked with 50 mM NADPH until colourless; FAD bound.

The target of assay [2] is T2, OsMDHAR (Oryza sativa, UniProt Q652L6, Y349F).
T2 construct: gene MDAR3; amplified from rice cDNA; monomer by size exclusion
Briefly: X-ray crystal structure, […] Å. Particulars: crystal soaked with 10 mM NADH, then ISD; quaternary complex with FAD and ISD.

For assay [3], the target named is T1, OsMDHAR. In words: isothermal titration calorimetry. As to conditions: text names both NADH and NAD for the titrated ligand.
Assay [4] has as its target T3, OsMDHAR (Oryza sativa, UniProt Q652L6).
T3 construct: gene MDAR3; amplified from rice cDNA; monomer by size exclusion
Briefly: isothermal titration calorimetry. Particulars: text names both NADH and NAD for the titrated ligand.

For assay [5], the target named is T3, OsMDHAR. In words: X-ray crystal structure, […] Å. Particulars: co-purified FAD, one per monomer; NAD-free crystal.

T3 sequence (Q652L6 whole entry): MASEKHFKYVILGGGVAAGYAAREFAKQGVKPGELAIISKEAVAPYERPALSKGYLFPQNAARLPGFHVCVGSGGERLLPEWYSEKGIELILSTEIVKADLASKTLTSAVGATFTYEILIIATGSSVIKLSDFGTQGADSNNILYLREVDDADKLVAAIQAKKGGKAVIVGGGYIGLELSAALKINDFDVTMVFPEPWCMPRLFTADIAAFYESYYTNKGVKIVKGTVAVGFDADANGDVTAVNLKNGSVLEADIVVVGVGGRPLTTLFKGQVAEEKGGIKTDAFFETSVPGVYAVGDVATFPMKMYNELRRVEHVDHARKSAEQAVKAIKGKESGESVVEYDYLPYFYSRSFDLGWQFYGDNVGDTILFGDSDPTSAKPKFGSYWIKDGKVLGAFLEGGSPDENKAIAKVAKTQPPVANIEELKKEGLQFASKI
T1 sequence (Q652L6 whole entry E196A): as the sequence (Q652L6 whole entry) above, with E196A counted along it
T2 sequence (Q652L6 whole entry Y349F): as the sequence (Q652L6 whole entry) above, with Y349F counted along it

For `NC(=O)c1ccc[n+]([C@@H]2O[C@H](COP(=O)(O)OP(=O)(O)OC[C@H]3O[C@@H](n4cnc5c(N)ncnc54)[C@H](OP(=O)(O)O)[C@@H]3O)[C@@H](O)[C@H]2O)c1` [NADP], the “X-ray crystal structure, 1.8 Å” value on OsMDHAR [1] is on record as “the structure of the E196A mutant-NADP complex revealed”.
Take `NC(=O)c1ccc[n+]([C@@H]2O[C@H](COP(=O)(O)OP(=O)(O)OC[C@H]3O[C@@H](n4cnc5c(N)ncnc54)[C@H](O)[C@@H]3O)[C@@H](O)[C@H]2O)c1` [NAD]: the “X-ray crystal structure, 1.9 Å” value at OsMDHAR [2] was “We also determined quaternary complex structures with FAD, NAD, and AsA or ISD”.
For the molecule `NC(=O)C1=CN([C@@H]2O[C@H](COP(=O)(O)OP(=O)(O)OC[C@H]3O[C@@H](n4cnc5c(N)ncnc54)[C@H](O)[C@@H]3O)[C@@H](O)[C@H]2O)C=CC1` [NADH], the binding affinity result on OsMDHAR [3] was “there is no difference between WT and E196A in NAD binding affinity”; on OsMDHAR [4], “we measured the binding affinity of wild type (WT) and E196A for NADH and NADPH”.
On to `Cc1cc2nc3c(=O)[nH]c(=O)nc-3n(C[C@H](O)[C@H](O)[C@H](O)COP(=O)(O)OP(=O)(O)OC[C@H]3O[C@@H](n4cnc5c(N)ncnc54)[C@H](O)[C@@H]3O)c2cc1C` [FAD], for which, at OsMDHAR [5], the “X-ray crystal structure, 1.7 Å” value is reported as “All four structures contain one molecule of FAD per monomer”.
